Series [1] in a line: refractive index (Na D-line) (dimensionless). The following applies: 303.15 K; 101.33 kPa; Liquid.
For series [2] the following is noted: 303.15 K; 101 kPa; Liquid.
The nature of series [3]: xn = mol fraction of the nth substance listed. The following applies: 303.15 K, 101 kPa, Liquid.
Series [4] can be described thus: refractive index (Na D-line) (dimensionless); xn = mol fraction of the nth substance listed. To be noted: 303.15 K, 101 kPa, Liquid.

Numbers after ± are expanded uncertainties.

`CCCCO` [butan-1-ol]: in series [1], the refractive index (as a rule, the speed of light in vacuum divided by its phase velocity in the sample) came to 1.3946 ± 0.0007. Also, in series [2], the mass density (usually the mass of a sample divided by its volume) came to 802 ± 0.8 kg/m3 and the speed of sound (as a rule, the propagation velocity of pressure waves in the medium) was determined as 1231 ± 4.7 m/s.
Consider `CCCCO` [butan-1-ol] + C[S+](C)[O-], for which, in series [3] (x2 = 0), the mass density was 802 ± 0.8 kg/m3 and the speed of sound was 1231 ± 4.7 m/s. For the same compound, in series [4] (x2 = 0), the refractive index was determined as 1.3946 ± 0.0007.
Consider `C[S+](C)[O-]` [dimethyl sulfoxide], for which the refractive index in series [1] was determined as 1.4751 ± 0.0007. Also, in series [2], the mass density is 1094.9 ± 1.3 kg/m3 and the speed of sound is on record as 1490.9 ± 5 m/s.
For `C[S+](C)[O-]` [dimethyl sulfoxide] + CCCCCCCO, in series [3] (x1 = 1), the mass density is listed as 1094.9 ± 1.3 kg/m3 and the speed of sound is 1490.9 ± 7 m/s. In addition, in series [4] (x1 = 1), the refractive index was determined as 1.4751 ± 0.0007.
For `C[S+](C)[O-]` [dimethyl sulfoxide] + CCCCCCO, in series [3] (x1 = 1), the mass density amounted to 1094.9 ± 2.4 kg/m3 and the speed of sound is listed as 1490.9 ± 7 m/s. In addition, in series [4] (x1 = 1), the refractive index is recorded as 1.4751 ± 0.0007.
In the case of `C[S+](C)[O-]` [dimethyl sulfoxide] + CCCCO, the mass density was determined as 825.7 ± 0.8 kg/m3 in series [3] (x1 = 0.1034); 851.8 ± 0.9 kg/m3 in series [3] (x1 = 0.2122); 877.9 ± 0.9 kg/m3 in series [3] (x1 = 0.3156); 900.5 ± 1 kg/m3 in series [3] (x1 = 0.4009); 930.1 ± 1 kg/m3 in series [3] (x1 = 0.5073); 957.2 ± 1 kg/m3 in series [3] (x1 = 0.6002). Moreover, the mass density in series [3] (x1 = 0.6957) was 986.6 ± 1.1 kg/m3; in series [3] (x1 = 0.8112), 1024.6 ± 1.2 kg/m3; in series [3] (x1 = 0.9051) it was 1058.4 ± 1.2 kg/m3; in series [3] (x1 = 1), 1094.9 ± 1.3 kg/m3. The speed of sound in series [3] (x1 = 0.1034) turned out to be 1247.5 ± 4.7 m/s; in series [3] (x1 = 0.2122) it was 1267.5 ± 4.8 m/s; in series [3] (x1 = 0.3156) it was 1288 ± 4.8 m/s; in series [3] (x1 = 0.4009) it was 1305.5 ± 4.8 m/s; in series [3] (x1 = 0.5073) it was 1327.3 ± 4.8 m/s; in series [3] (x1 = 0.6002), 1347.5 ± 4.8 m/s. The speed of sound was 1371 ± 4.9 m/s in series [3] (x1 = 0.6957), 1406.6 ± 4.9 m/s in series [3] (x1 = 0.8112), 1443 ± 5 m/s in series [3] (x1 = 0.9051) and 1490.9 ± 5 m/s in series [3] (x1 = 1). The refractive index is reported as 1.4001 ± 0.0007 in series [4] (x1 = 0.1034); 1.4064 ± 0.0007 in series [4] (x1 = 0.2122); 1.4127 ± 0.0007 in series [4] (x1 = 0.3156); 1.4185 ± 0.0007 in series [4] (x1 = 0.4009); 1.4263 ± 0.0007 in series [4] (x1 = 0.5073); 1.4335 ± 0.0007 in series [4] (x1 = 0.6002). The refractive index in series [4] (x1 = 0.6957) is given as 1.4417 ± 0.0007; in series [4] (x1 = 0.8112), 1.4527 ± 0.0007; in series [4] (x1 = 0.9051), 1.4633 ± 0.0007; in series [4] (x1 = 1), 1.4751 ± 0.0007.
In the case of `CCCCCCCO` [heptan-1-ol], the refractive index in series [1] worked out at 1.4201 ± 0.0007. For the same compound, in series [2], the mass density came to 815.7 ± 0.9 kg/m3 and the speed of sound was 1306 ± 6.6 m/s.
Turning to `CCCCCCCO` [heptan-1-ol] + C[S+](C)[O-], the mass density is recorded as 815.7 ± 0.9 kg/m3 in series [3] (x2 = 0); 825.7 ± 0.9 kg/m3 in series [3] (x2 = 0.1096); 846 ± 0.9 kg/m3 in series [3] (x2 = 0.2535); 866.8 ± 1 kg/m3 in series [3] (x2 = 0.3668); 889.4 ± 1 kg/m3 in series [3] (x2 = 0.474); 915.8 ± 1 kg/m3 in series [3] (x2 = 0.5788). For the same compound, the mass density in series [3] (x2 = 0.6708) was determined as 943.2 ± 1.1 kg/m3; in series [3] (x2 = 0.7598), 973.2 ± 1.1 kg/m3; in series [3] (x2 = 0.8376) it was 1003.5 ± 1.2 kg/m3; in series [3] (x2 = 0.9031), 1034.5 ± 1.2 kg/m3. Besides, the speed of sound in series [3] (x2 = 0) is listed as 1306 ± 6.6 m/s; in series [3] (x2 = 0.1096), 1312.3 ± 6.6 m/s; in series [3] (x2 = 0.2535), 1319.5 ± 6.6 m/s; in series [3] (x2 = 0.3668), 1329.9 ± 6.6 m/s; in series [3] (x2 = 0.474) it was 1338 ± 6.6 m/s; in series [3] (x2 = 0.5788), 1351.5 ± 6.7 m/s. The speed of sound in series [3] (x2 = 0.6708) was 1369 ± 6.7 m/s; in series [3] (x2 = 0.7598) it was 1384.6 ± 6.7 m/s; in series [3] (x2 = 0.8376), 1409.3 ± 6.8 m/s; in series [3] (x2 = 0.9031), 1428.6 ± 6.8 m/s. In addition, the refractive index in series [4] (x2 = 0) came to 1.4201 ± 0.0007; in series [4] (x2 = 0.1096), 1.4209 ± 0.0007; in series [4] (x2 = 0.2535), 1.4242 ± 0.0007; in series [4] (x2 = 0.3668), 1.4277 ± 0.0007; in series [4] (x2 = 0.474), 1.4312 ± 0.0007; in series [4] (x2 = 0.5788) it was 1.4355 ± 0.0007. Besides, the refractive index was determined as 1.4402 ± 0.0007 in series [4] (x2 = 0.6708), 1.4458 ± 0.0007 in series [4] (x2 = 0.7598), 1.4528 ± 0.0007 in series [4] (x2 = 0.8376) and 1.4615 ± 0.0007 in series [4] (x2 = 0.9031).
For the compound `CCCCCCO` [hexan-1-ol], the refractive index in series [1] is recorded as 1.4134 ± 0.0008. In series [2], the mass density is 811.8 ± 1.8 kg/m3 and the speed of sound is reported as 1282 ± 6.7 m/s.
As to `CCCCCCO` [hexan-1-ol] + C[S+](C)[O-], the mass density is given as 811.8 ± 1.8 kg/m3 in series [3] (x2 = 0); 832.6 ± 1.8 kg/m3 in series [3] (x2 = 0.1336); 857.6 ± 1.9 kg/m3 in series [3] (x2 = 0.2712); 880.7 ± 1.9 kg/m3 in series [3] (x2 = 0.3808); 904.6 ± 1.9 kg/m3 in series [3] (x2 = 0.4814); 929.7 ± 2 kg/m3 in series [3] (x2 = 0.5762). In addition, the mass density is given as 956.3 ± 2 kg/m3 in series [3] (x2 = 0.666), 989.2 ± 2.1 kg/m3 in series [3] (x2 = 0.765), 1021.1 ± 2.2 kg/m3 in series [3] (x2 = 0.848) and 1054.7 ± 2.3 kg/m3 in series [3] (x2 = 0.9246). Further, the speed of sound in series [3] (x2 = 0) came to 1282 ± 6.7 m/s; in series [3] (x2 = 0.1336), 1300.8 ± 6.7 m/s; in series [3] (x2 = 0.2712), 1311.6 ± 6.7 m/s; in series [3] (x2 = 0.3808), 1325.3 ± 6.7 m/s; in series [3] (x2 = 0.4814), 1336.5 ± 6.7 m/s; in series [3] (x2 = 0.5762), 1349.5 ± 6.7 m/s. For the same compound, the speed of sound was 1368 ± 6.8 m/s in series [3] (x2 = 0.666), 1395 ± 6.8 m/s in series [3] (x2 = 0.765), 1420.5 ± 6.8 m/s in series [3] (x2 = 0.848) and 1448.5 ± 6.9 m/s in series [3] (x2 = 0.9246). Besides, the refractive index in series [4] (x2 = 0) was found to be 1.4134 ± 0.0008; in series [4] (x2 = 0.1336), 1.4149 ± 0.0008; in series [4] (x2 = 0.2712) it was 1.4185 ± 0.0008; in series [4] (x2 = 0.3808) it was 1.4216 ± 0.0008; in series [4] (x2 = 0.4814), 1.4259 ± 0.0008; in series [4] (x2 = 0.5762), 1.4311 ± 0.0008. The refractive index in series [4] (x2 = 0.666) worked out at 1.4372 ± 0.0007; in series [4] (x2 = 0.765), 1.4448 ± 0.0007; in series [4] (x2 = 0.848), 1.4535 ± 0.0007; in series [4] (x2 = 0.9246), 1.4629 ± 0.0007.

Source of the values: the NIST ThermoML archive (doi:10.1007/s10765-005-8102-9).
